# In article PMC9133015 (Nature Communications, 2022):
# Values joined by “and” are separate entries in the source; they are usually repeats but may differ in a detail not shown here. Equal entries are not always repeated. Where two headings read alike, the source gives them in different places.
# Tests used:
# Pharmacokinetic profiles = format: in vivo; conditions: rat, SD rats; for MRT inf: read-out: MRT0-∞
# DYRK4 = target: T1, DYRK4 (Homo sapiens, UniProt Q9NR20); test: DYRKs kinase activity assay (33P-ATP, DYRKtide substrate): DYRK4; format: biochemical; conditions: for % Inhibition DYRK4: duplicates
# T1 construct: purchased Reaction Biology Corporation (assay service)
# T1 sequence (Q9NR20 1-520): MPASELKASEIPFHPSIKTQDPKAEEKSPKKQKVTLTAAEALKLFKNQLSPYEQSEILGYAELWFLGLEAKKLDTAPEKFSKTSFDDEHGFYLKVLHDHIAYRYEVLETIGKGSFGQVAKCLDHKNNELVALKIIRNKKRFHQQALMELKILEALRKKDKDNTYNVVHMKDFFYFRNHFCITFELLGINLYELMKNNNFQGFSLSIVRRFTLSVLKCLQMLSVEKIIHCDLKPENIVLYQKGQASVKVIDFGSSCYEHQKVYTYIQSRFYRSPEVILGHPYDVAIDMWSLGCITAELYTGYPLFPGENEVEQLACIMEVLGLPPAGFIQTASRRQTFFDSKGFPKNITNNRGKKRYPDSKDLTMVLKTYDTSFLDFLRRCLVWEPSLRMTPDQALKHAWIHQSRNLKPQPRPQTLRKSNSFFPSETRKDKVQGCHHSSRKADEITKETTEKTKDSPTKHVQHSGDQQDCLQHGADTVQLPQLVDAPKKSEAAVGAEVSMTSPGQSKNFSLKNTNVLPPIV
# [1] = SD, serum, po, 10 mg/kg, PO 10 mg/kg, read-out: Con. (individual rats NO.1-3)
# [2] = SD, serum, po, 10 mg/kg, PO 10 mg/kg, read-out: Con. Mean
# [3] = Sprague-Dawley, serum, iv, 1 mg/kg, IV 1 mg/kg, read-out: Con. (individual rats NO.1-3)
# [4] = Sprague-Dawley, serum, iv, 1 mg/kg, IV 1 mg/kg, read-out: Con. Mean
structure (smiles),measurement,setting,value
CCN1CCN(C(=O)c2ccc(Nc3ncc(F)c(-c4ccc5nc(N(C)C)sc5c4)n3)nc2)CC1 [YK-2-69],concentration at 1 h,Pharmacokinetic profiles; [1],386 ng/mL
same,concentration at 1 h,Pharmacokinetic profiles; [2],400 ng/mL
same,concentration at 2 h,Pharmacokinetic profiles; [1],600 ng/mL
same,concentration at 2 h,Pharmacokinetic profiles; [2],629 ng/mL
same,concentration at 4 h,Pharmacokinetic profiles; [1],684 ng/mL
same,concentration at 4 h,Pharmacokinetic profiles; [2],663 ng/mL
same,concentration at 6 h,Pharmacokinetic profiles; [1],685 ng/mL
same,concentration at 6 h,Pharmacokinetic profiles; [2],589 ng/mL
same,concentration at 8 h,Pharmacokinetic profiles; [1],507 ng/mL
same,concentration at 8 h,Pharmacokinetic profiles; [2],483 ng/mL
same,concentration at 12 h,Pharmacokinetic profiles; [1],309 ng/mL
same,concentration at 12 h,Pharmacokinetic profiles; [2],269 ng/mL
same,concentration at 24 h,Pharmacokinetic profiles; [1],67.9 ng/mL
same,concentration at 24 h,Pharmacokinetic profiles; [2],57.4 ng/mL
same,concentration at 0.033 h,"Pharmacokinetic profiles; Sprague-Dawley, serum, iv, 1 mg/kg, IV 1 mg/kg, 0.033 h, read-out: Con. Mean",974 ng/mL
same,concentration at 0.083 h,Pharmacokinetic profiles; [3],811 ng/mL
same,concentration at 0.083 h,Pharmacokinetic profiles; [4],781 ng/mL
same,concentration at 0.25 h,Pharmacokinetic profiles; [3],560 ng/mL
same,concentration at 0.25 h,Pharmacokinetic profiles; [4],524 ng/mL
same,concentration at 0.5 h,Pharmacokinetic profiles; [3],399 ng/mL
same,concentration at 0.5 h,Pharmacokinetic profiles; [4],421 ng/mL
same,concentration at 1 h,Pharmacokinetic profiles; [3],265 ng/mL
same,concentration at 1 h,Pharmacokinetic profiles; [4],310 ng/mL
same,concentration at 12 h,"Pharmacokinetic profiles; in vivo, IV 1 mg/kg, read-out: Con. (individual rats NO.1-3)",19.8 ng/mL
same,AUC(0-inf),"Pharmacokinetic profiles; serum, IV 1 mg/kg",1500 ng·h/mL
same,Cmax,"Pharmacokinetic profiles; serum, IV 1 mg/kg",974 ng/mL
same,Tmax,"Pharmacokinetic profiles; serum, IV 1 mg/kg",0.0333 h
same,clearance,"Pharmacokinetic profiles; serum, IV 1 mg/kg",11.2 mL/min/kg
same,half-life,"Pharmacokinetic profiles; serum, IV 1 mg/kg",3 h
same,MRT inf,"Pharmacokinetic profiles; serum, IV 1 mg/kg",3.5 h
same,AUC(0-inf),"Pharmacokinetic profiles; serum, PO 10 mg/kg",8380 ng·h/mL
same,Cmax,"Pharmacokinetic profiles; serum, PO 10 mg/kg",674 ng/mL
same,Tmax,"Pharmacokinetic profiles; serum, PO 10 mg/kg",4 h
same,half-life,"Pharmacokinetic profiles; serum, PO 10 mg/kg",5 h
same,bioavailability,"Pharmacokinetic profiles; serum, PO 10 mg/kg vs IV 1 mg/kg, read-out: F (oral bioavailability)",56%
same,MRT inf,"Pharmacokinetic profiles; serum, PO 10 mg/kg",8.9 h
same,IC50,DYRK4,> 1000 nM
same,% Inhibition DYRK4,DYRK4; 0.000762079 µM,1.66%
same,% Inhibition DYRK4,DYRK4; 0.00228624 µM,-2.93% and -3.51%
same,% Inhibition DYRK4,DYRK4; 0.00685871 µM,3.37%
same,% Inhibition DYRK4,DYRK4; 0.0205761 µM,5.66%
same,% Inhibition DYRK4,DYRK4; 0.0617284 µM,18.67%
same,% Inhibition DYRK4,DYRK4; 0.185185 µM,25.42%
same,% Inhibition DYRK4,DYRK4; 0.555556 µM,42.15%
same,% Inhibition DYRK4,DYRK4; 1.66667 µM,56.81%
same,% Inhibition DYRK4,DYRK4; 5 µM,64.30%
same,inhibition at 0.000762079 µM,"DYRK4; read-out: % Inhibition DYRK4, 0.000762079 µM, duplicates",2.99%
same,inhibition at 0.00685871 µM,"DYRK4; read-out: % Inhibition DYRK4, 0.00685871 µM, duplicates",4.77%
same,inhibition at 0.0205761 µM,"DYRK4; read-out: % Inhibition DYRK4, 0.0205761 µM, duplicates",7.57%
same,inhibition at 0.0617284 µM,"DYRK4; read-out: % Inhibition DYRK4, 0.0617284 µM, duplicates",21.2%
same,inhibition at 0.185185 µM,"DYRK4; read-out: % Inhibition DYRK4, 0.185185 µM, duplicates",29.7%
same,inhibition at 0.555556 µM,"DYRK4; read-out: % Inhibition DYRK4, 0.555556 µM, duplicates",42.1%
same,inhibition at 1.66667 µM,"DYRK4; read-out: % Inhibition DYRK4, 1.66667 µM, duplicates",54.7%
same,inhibition at 5 µM,"DYRK4; read-out: % Inhibition DYRK4, 5 µM, duplicates",64.8%
same,selectivity over DYRK4,DYRK4; vs DYRK2,more than 100 fold
